Here are results for eight compounds from ChEMBL document CHEMBL4118049, “HPLC-Based Activity Profiling for GABAA Receptor Modulators in Extracts: Validation of an Approach Utilizing a Larval Zebrafish Locomotor Assay” (J Nat Prod, 2017).

For series [1], the species on record is Danio rerio. As to the kind of experiment: Anticonvulsant activity in 7-days post fertilized zebra fish larvae assessed as reduction in pentylenetetrazol-induced locomotor activity by measuring total distance traveled by larvae at 1.5 to 6 uM pretreated for 3 hrs followed by pentylenetetrazol addition measured at 5 mins interval 30 mins. In kind it is functional, organism-based.

For series [2], the species on record is Danio rerio. As to the kind of experiment: Toxicity in 7-days post fertilized zebra fish larvae after 1.5 to 24 hrs by microscopic analysis. Format: organism-based. Conditions: zebrafish, in vivo.
The species named for series [3] is Danio rerio. As to the kind of experiment: Anticonvulsant activity in 7-days post fertilized zebra fish larvae assessed as reduction in pentylenetetrazol-induced locomotor activity by measuring total distance traveled by larvae pretreated for 3 hrs followed by pentylenetetrazol addition measured at 5 mins interval 30 mins. Format: functional, organism-based.
The species named for series [4] is Danio rerio. As to the kind of experiment: Anticonvulsant activity in 7-days post fertilized zebra fish larvae assessed as reduction in pentylenetetrazol-induced locomotor activity by measuring total distance traveled by larvae at 0.25 to 2 uM pretreated for 3 hrs followed by pentylenetetrazol addition measured at 5 mins interval 30 mins. Format: functional, organism-based.

Series [5] is filed under the species Danio rerio. As to the kind of experiment: Anticonvulsant activity in 7-days post fertilized zebra fish larvae assessed as reduction in pentylenetetrazol-induced locomotor activity by measuring total distance traveled by larvae at 1.25 to 10 uM pretreated for 3 hrs followed by pentylenetetrazol addition measured at 5 mins interval 30 mins. In kind it is functional, organism-based.

The source made the active and inactive calls. The rule behind the calls is not given here.

For `CC(C)c1ccc2c(c1)CC[C@H]1[C@](C)(C(=O)O)CCC[C@]21C` [DEHYDROABIETIC ACID], the result in series [1] was Active. In addition, the MTD in series [2] is 6 µM.

As for `CN1C(=O)CN=C(c2ccccc2)c2cc(Cl)ccc21` [DIAZEPAM], the Activity result in series [3] is “Dose-dependent effect”. The compound also had an MTD in series [2] of 20 µM.

As for `C=CCc1ccc(O)c(-c2cc(CC=C)ccc2O)c1` [MAGNOLOL], the Activity entry in series [3] was “Dose-dependent effect”. This compound showed an MTD in series [2] of 4 µM.

Turning to `O=C(/C=C/C=C/c1ccc2c(c1)OCO2)N1CCCCC1` [PIPERINE], the Activity result in series [3] is “Dose-dependent effect”. The compound also gave an MTD in series [2] of 12 µM.

Compound `C=C[C@]1(C)C=C2CC[C@@H]3[C@](C)(CCC[C@@]3(C)C(=O)O)[C@H]2CC1` [SANDARACOPIMARIC ACID] registered an MTD in series [2] of 2 µM. Moreover, in series [4], the outcome was Active.

Consider `CC(C)=CC[C@]12Oc3cc(O)c([C@H]4C=C(C)C[C@H](c5ccc(O)cc5O)[C@H]4C(=O)c4ccc(O)cc4O)c(O)c3C(=O)[C@@]1(O)Oc1cc(O)ccc12` [SANGGENON C], for which the MTD in series [2] was determined as 2 µM. In addition, the outcome in series [4] was inactive.

For `C=C(C)[C@H](CC=C(C)C)Cc1c(O)cc(O)c2c1O[C@H](c1ccc(O)cc1O)CC2=O` [SOPHORAFLAVANONE G], the outcome in series [5] was Active. The compound also yielded an MTD in series [2] of 10 µM.

Regarding `CC1=C2[C@H](/C=C(\C)C(=O)O)CC[C@@H](C)[C@H]2CC1` [VALERENIC ACID], in series [3], the Activity entry was “Dose-dependent effect”. Moreover, in series [2], the MTD stood at 10 µM.
